Experiments:
[1] = biological target: T1, human β2 -adrenergic receptor (Homo sapiens, UniProt P07550); assay: Human β2-adrenergic receptor-stimulating activity (cAMP accumulation in CHO/pKREX21-8 cells); type: cell-based
T1 construct: expressed in transfected cells; host or cells: CHO-K1, clone CHO/pKREX21-8
Excerpt: cDNA was synthesized with Poly(A)^+ RNA derived from human brain (Clontech: trade number; CL6516-1) by using SuperScript Systems (Life Technologies).
After the reaction mixture was digested with restriction endonucleases Sse8387I and HindIII, about 1.4 kbp fragment was isolated by electrophoresis. This fragment was ligated with expression vector pKCN1 digested with restriction endonucleases Sse8387I and HindIII, and was introduced into E. coli HB101 in a conventional manner. Plasmid DNA was prepared from the selected transformant, and the nucleotide sequence of the about 1.4 kbp fragment obtained by digestion of this plasmid DNA with restriction endonucleases Sse8387I and HindIII was determined. […] This plasmid was named as pKREX21 for highly expressing human β2 -adrenergic receptor, and was introduced into CHO-K1 in the same manner as the method of establishment of the cell line highly expressing human β3 -adrenergic receptor.
(§1) Experiment 1 Human β-adrenergic receptor-stimulating activity:
(§2) The cells were peeled off by incubation with phosphate-buffered saline containing 0.5 mM EDTA at 37° C. for 10 minutes after the medium was removed. The CHO/pKREX10-36 cells were collected by centrifugation, and suspended in Hanks' balanced salts (ICN Biomedicals) containing 1 mM L-ascorbic acid and 1 mM 3-isobutyl-1-methylxanthine at the concentration of about 2×10^6cells/ml. This suspension (100μl) and a test compound were mixed in the same balanced salt (500 μl) and incubated at 37° C. for 30 minutes, followed by boiling for 5 minutes to terminate the reaction. After centrifugation of the reaction mixture, the amount of cAMP in the supernatant was measured by using cAMP EIA System (Amersham).
Similarly, the amount of cAMP was measured by using CHO/pKREX21-8 for highly expressing human β2 -adrenergic receptor instead of the CHO/pKREX10-36 for highly expressing human β3 -adrenergic receptor.

[2] = Acute toxicity experiment using mice; type: in vivo; details: oral administration at a dose of 300 mg/kg
Excerpt: Thus, when taking into consideration the therapeutically effective dose, the compounds of the present invention have no problem in safety to living body.

[3] = tested on: glucose level in the blood; assay: Blood glucose reducing activity on fasted mouse; type: in vivo, ddY male mouse; details: po, 3 h, read-out: Blood glucose reducing activity (ED25)
Protocol: Experiment 2 Blood glucose reducing activity on fasted mouse:
A test compound suspended in 0.5% tragacanth solution was orally administered to a ddY male mouse (weight: 20-30 g) under being fasted, and the blood was collected before and at three hours after the administration of the test compound. The glucose level in the blood was determined by the method of Kunst A., et al. (Hexokinase/G6PDH method) [Bergmeyer, H. U. (eds.), […], vol. VI, 3rd edition, Verlag Chemie GmbH, Weinheim·Deerfield Beach, Florida·Basel, 163-172 (1984)]. The blood glucose reducing activity of the test compound was expressed by ED25 value which is a concentration of the test compound required to reduce the glucose level in blood before the administration of the test compound by 25%. Gliclazide was used as a reference compound which is a commercially available drug for treatment of diabetes mellitus.

[4] = biological target: T2, human β3 -adrenergic receptor (Homo sapiens, UniProt P13945); assay: Human β3-adrenergic receptor-stimulating activity (cAMP accumulation in CHO/pKREX10-36 cells); type: cell-based
T2 construct: expressed in transfected cells; host or cells: CHO-K1 (ATCC CCL 61), clone CHO/pKREX10-36
Protocol: Establishment of the cell line highly expressing human β3 -adrenergic receptor
Separately, another expression vector for animal cells, pSV2-neo [Southern and Berg, J. Mol. Appl. Genet. […] These DNAs were ligated with DNA Ligation Kit (Takara Shuzo Co., Ltd.) and were introduced into E. coli HB101 in a conventional manner to give the transformants. Plasmid DNAs were prepared from the transformants and digested with a restriction endonuclease PstI. A clone which produced about 3.8 kbp, 2.2 kbp, 1.4 kbp, and 0.9 kbp fragments was selected to give a plasmid named pKCN0.
The reaction mixture was used for transformation of E. coli HB101 and plasmid DNAs were prepared from the selected transformants. The plasmid DNAs were digested with restriction endonucleases DraI and HindIII, and a clone which produced about 430 bp fragment was selected to give a plasmid named pKCN1 for expression vector.
10% Dimethyl sulfoxide was added to the reaction mixture at the PCR reaction.
After the reaction mixture was digested with restriction endonucleases Sse8387I and StuI, about 1.3 kbp fragment was isolated by electrophoresis. This fragment was ligated with expression vector pKCN1 which was digested with restriction endonucleases Sse8387I and EcoRV, and the resultant was introduced into E. coli HB101 in a conventional manner. Plasmid DNA was prepared from the selected transformant and the nucleotide sequence of the about 1.3 kbp fragment obtained by digestion of the plasmid DNA with restriction endonucleases Sse8387I and XhoI was determined. […] This plasmid for expressing human β3 -adrenergic receptor was named as pKREX10.
The reaction mixture was filtered with glass filter GF/C (Whatman) presoaked with 0.3% polyethyleneimine and washed by using BIO-DOT apparatus (Bio-Rad Laboratories), and the radioactivity on the filter was counted by γ-ray counter. […] Establishment of the cell line highly expressing human β2 -adrenergic receptor
as §1, §2

T1 sequence (P07550 whole entry): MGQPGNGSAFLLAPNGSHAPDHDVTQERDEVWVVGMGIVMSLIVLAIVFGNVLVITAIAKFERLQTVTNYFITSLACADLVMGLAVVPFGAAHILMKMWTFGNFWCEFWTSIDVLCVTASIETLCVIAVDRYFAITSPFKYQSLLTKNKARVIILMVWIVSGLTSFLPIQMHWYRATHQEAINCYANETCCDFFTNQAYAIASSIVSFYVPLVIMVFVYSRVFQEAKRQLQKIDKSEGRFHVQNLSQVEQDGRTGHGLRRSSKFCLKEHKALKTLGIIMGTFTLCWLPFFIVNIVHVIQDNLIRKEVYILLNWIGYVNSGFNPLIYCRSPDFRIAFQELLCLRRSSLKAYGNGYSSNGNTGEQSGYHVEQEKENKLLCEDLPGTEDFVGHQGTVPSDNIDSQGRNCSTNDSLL
T2 sequence (P13945 whole entry): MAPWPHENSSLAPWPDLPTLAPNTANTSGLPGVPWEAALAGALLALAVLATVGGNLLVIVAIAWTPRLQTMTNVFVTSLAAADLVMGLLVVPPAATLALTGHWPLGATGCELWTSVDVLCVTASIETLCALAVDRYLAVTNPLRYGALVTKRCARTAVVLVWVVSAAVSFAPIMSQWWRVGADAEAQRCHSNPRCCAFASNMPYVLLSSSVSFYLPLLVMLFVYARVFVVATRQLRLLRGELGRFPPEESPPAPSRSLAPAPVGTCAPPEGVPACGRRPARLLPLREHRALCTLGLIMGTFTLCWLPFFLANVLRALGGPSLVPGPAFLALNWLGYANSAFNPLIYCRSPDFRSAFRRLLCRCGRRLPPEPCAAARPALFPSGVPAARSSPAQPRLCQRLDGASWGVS

## COc1cccc2c(CC(C)NC[C@H](O)c3cccc(Cl)c3)c[nH]c12 (stereo partly drawn) [Example 1-A, 2-[3-(7-methoxyindol-3-yl)-2-propylamino]-(1R)-1-(3-chlorophenyl)ethanol]
[1]
  EC50: 13 nM
[1]; read-out: I.A. value β2 -receptor
  Emax: 36%
[2]
  acute toxicity: no toxicity at all
[3]
  ED25: 3 µg/kg
[4]; 50% of cAMP accumulation, CHO/pKREX10-36, 37° C., 30 minutes, read-out: EC50 value β3 -receptor
  EC50: 0.67 nM
[4]; read-out: I.A. value β3 -receptor
  Emax: 114%

From US5817689A, “Indole derivatives having a 2-phenyl-ethanolamino-substituted lower alkyl group at the 2-or 3-position thereof” (priority 1994, dated 1998)
